Experimental data: article PMC8286840, “Identifying SARS-CoV-2 antiviral compounds by screening for small molecule inhibitors of Nsp3 papain-like protease” (Biochemical Journal, 2021)
Counter-ions that a name gives are not always drawn. Like-named read-outs stand apart in the source and are kept apart here.

What was measured:
[1] = target: T1, SARS-CoV-2 PLpro (nsp3 1564–1878) (Severe acute respiratory syndrome coronavirus 2, UniProt P0DTD1); test: biochemical; design: FRET-quenched peptide (Pro3) cleavage by PLpro, 10 min pre-incubation, slope over 20 min, normalised to no-compound control; details: read-out: % of control remaining
[2] = target: T1, SARS-CoV-2 PLpro (nsp3 1564–1878); test: biochemical; design: FRET-quenched peptide (Pro3) cleavage by PLpro, 10 min pre-incubation, slope over 20 min, normalised to no-compound control; details: read-out: % of control remaining; remark: listed apart in the source

For `CCCCCCC(C)(C)c1ccc([C@@H]2C[C@H](O)CC[C@H]2CCCO)c(O)c1` [CP55940], the remaining activity at 3.75 µM [1] was 106% and the remaining activity at 1.25 µM [2] was 104%.
Molecule `c1ccc2c(Oc3nc(Nc4ccc(N5CCOCC5)cc4)c4ncn(C5CCCCC5)c4n3)cccc2c1` [9-cyclohexyl-N-[4-(4-morpholinyl)phenyl]-2-(1-naphthyloxy)-9H-purin-6-amine] has a remaining activity at 3.75 µM ([1]; Well no.=5695, high concentration screen) of 97.8% and a remaining activity at 1.25 µM ([2]; Well no.=5695, low concentration screen) of 98.5%.
With `COCC(=O)O[C@]1(CCN(C)CCCc2nc3ccccc3[nH]2)CCc2cc(F)ccc2[C@@H]1C(C)C` [Mibefradil dihydrochloride] the remaining activity at 3.75 µM ([1]; Well no.=882, high concentration screen) was 91.3% and the remaining activity at 1.25 µM ([2]; Well no.=882, low concentration screen) was 99.7%.
For `O=C(Nc1cc(C(F)(F)F)cc(C(F)(F)F)c1)c1cc(Cl)ccc1O` [IMD 0354 - N-[3,5-Bis(trifluoromethyl)phenyl]-5-chloro-2-hydroxybenzamide], the remaining activity at 3.75 µM ([1]; Well no.=2586, high concentration screen) was 82.3% and the remaining activity at 1.25 µM ([2]; Well no.=2586, low concentration screen) was 86.3%.
For `CCN(C)C(=O)Oc1cccc([C@H](C)N(C)C)c1` [Rivastigmine], the remaining activity at 3.75 µM ([1]; Well no.=1722, high concentration screen) was 96.3% and the remaining activity at 1.25 µM ([2]; Well no.=1722, low concentration screen) was 95.2%.
`CCCCCCCCCC(=O)N[C@@H](Cc1c[nH]c2ccccc12)C(=O)N[C@H](CC(N)=O)C(=O)N[C@@H](CC(=O)O)C(=O)N[C@@H]1C(=O)NCC(=O)N[C@@H](CCCN)C(=O)N[C@@H](CC(=O)O)C(=O)N[C@H](C)C(=O)N[C@@H](CC(=O)O)C(=O)NCC(=O)N[C@H](CO)C(=O)N[C@@H]([C@H](C)CC(=O)O)C(=O)N[C@@H](CC(=O)c2ccccc2N)C(=O)O[C@@H]1C` [Daptomycin] was tested, and the remaining activity at 3.75 µM ([1]; Well no.=5201, high concentration screen) was 100%, the remaining activity at 3.75 µM ([1]; Well no.=7796, high concentration screen) was 105% and the remaining activity at 1.25 µM ([2]; Well no.=5201, low concentration screen) was 98.3%. It also gave a remaining activity at 1.25 µM ([2]; Well no.=7796, low concentration screen) of 104%.
Molecule `Clc1ccc(N2CCN(Cc3c[nH]c4ncccc34)CC2)cc1` [L-745,870 hydrochloride] has a remaining activity at 3.75 µM ([1]; Well no.=1108, high concentration screen) of 95.9% and a remaining activity at 1.25 µM ([2]; Well no.=1108, low concentration screen) of 92.3%.
With `CCOc1ccccc1O[C@H](c1ccccc1)[C@H]1CNCCO1` (racemic) [Reboxetine mesylate] the remaining activity at 3.75 µM ([1]; Well no.=4989, high concentration screen) was 91.1% and the remaining activity at 1.25 µM ([2]; Well no.=4989, low concentration screen) was 94.7%.
Work on `NC[C@@H]1O[C@H](O[C@H]2[C@@H](O)[C@H](O[C@@H]3[C@@H](O)[C@H](N)C[C@H](N)[C@H]3O[C@H]3O[C@H](CN)[C@@H](O)[C@H](O)[C@H]3N)O[C@@H]2CO)[C@H](N)[C@@H](O)[C@@H]1O` [Neomycin] yielded a remaining activity at 3.75 µM ([1]; Well no.=1911, high concentration screen) of 94.6%, a remaining activity at 3.75 µM ([1]; Well no.=3419, high concentration screen) of 90% and a remaining activity at 1.25 µM ([2]; Well no.=1911, low concentration screen) of 94.3%. The remaining activity at 1.25 µM ([2]; Well no.=3419, low concentration screen) was 87.7%.
`C[N+](C)(C)CCCCCNCC12CC3CC(CC(C3)C1)C2` [IEM-1460] was tested, and the remaining activity at 3.75 µM ([1]; Well no.=524, high concentration screen) was 105% and the remaining activity at 1.25 µM ([2]; Well no.=524, low concentration screen) was 105%.
For `CCCCCCN(CCCCCC)C(=O)Cc1c(-c2ccc(F)cc2)[nH]c2ccccc12` [N,N-Dihexyl-2-(4-fluorophenyl)indole-3-acetamide], the remaining activity at 3.75 µM ([1]; Well no.=632, high concentration screen) was 96.6% and the remaining activity at 1.25 µM ([2]; Well no.=632, low concentration screen) was 99.3%.
`Cc1ccccc1N1C(=O)c2cc(S(N)(=O)=O)c(Cl)cc2NC1C` (stereo not drawn) [Metolazone] gave a remaining activity at 3.75 µM ([1]; Well no.=943, high concentration screen) of 95.6%, a remaining activity at 3.75 µM ([1]; Well no.=8212, high concentration screen) of 90.4% and a remaining activity at 1.25 µM ([2]; Well no.=943, low concentration screen) of 102%. The remaining activity at 1.25 µM ([2]; Well no.=8212, low concentration screen) was 94.6%.
In the case of `Cc1nc2cccc(N)c2c(=O)n1C1CCC(=O)NC1=O` (stereo not drawn) [Avadomide], the remaining activity at 3.75 µM ([1]; Well no.=6870, high concentration screen) is reported as 95.9% and the remaining activity at 1.25 µM ([2]; Well no.=6870, low concentration screen) is reported as 99.6%.
With `OCC(CO)N[C@H]1C[C@](O)(CO)[C@@H](O)[C@H](O)[C@H]1O` [Voglibose] the remaining activity at 3.75 µM ([1]; Well no.=8298, high concentration screen) was 93.5% and the remaining activity at 1.25 µM ([2]; Well no.=8298, low concentration screen) was 90.6%.
`CN(C)Cc1ccc(-c2nc3cccc4c3n2CCNC4=O)cc1` [AG14361] gave a remaining activity at 3.75 µM ([1]; Well no.=5272, high concentration screen) of 97.3% and a remaining activity at 1.25 µM ([2]; Well no.=5272, low concentration screen) of 98.1%.
For `Nc1nc(=O)c2nc(CNc3ccc(C(=O)N[C@@H](CCC(=O)O)C(=O)O)cc3)cnc2[nH]1` [Folic acid], the remaining activity at 3.75 µM ([1]; Well no.=7300, high concentration screen) was 96.1% and the remaining activity at 1.25 µM ([2]; Well no.=7300, low concentration screen) was 97.8%.
Molecule `O=C(O)[C@H]1O[C@@H](Oc2cc3oc(-c4ccccc4)cc(=O)c3c(O)c2O)[C@H](O)[C@@H](O)[C@@H]1O` [Baicalin] has a remaining activity at 3.75 µM ([1]; Well no.=5190, high concentration screen) of 100% and a remaining activity at 1.25 µM ([2]; Well no.=5190, low concentration screen) of 101%.
Work on `O=C(O)CCCCC(CCSCc1ccccc1)SCc1ccccc1` (stereo not drawn) [CPI-613] yielded a remaining activity at 3.75 µM ([1]; Well no.=5083, high concentration screen) of 88.8% and a remaining activity at 1.25 µM ([2]; Well no.=5083, low concentration screen) of 97.7%.
In the case of `CC(=O)OC[C@@]1(O)C[C@@]23CC[C@@H]4c5ccoc5CC[C@@]4(C)[C@@H]2CC[C@@H]1C3` [Cafestol acetate], the remaining activity at 3.75 µM ([1]; Well no.=3525, high concentration screen) is reported as 103% and the remaining activity at 1.25 µM ([2]; Well no.=3525, low concentration screen) is reported as 96.8%.
Molecule `CC(/C=C/C(=O)NO)=C\[C@@H](C)C(=O)c1ccc(N(C)C)cc1` [Trichostatin A (TSA)] has a remaining activity at 3.75 µM ([1]; Well no.=4617, high concentration screen) of 107% and a remaining activity at 1.25 µM ([2]; Well no.=4617, low concentration screen) of 106%.
`C=CCc1ccc(O)c(-c2ccc(O)c(CC=C)c2)c1` [Honokiol] gave a remaining activity at 3.75 µM ([1]; Well no.=3621, high concentration screen) of 93.8% and a remaining activity at 1.25 µM ([2]; Well no.=3621, low concentration screen) of 97.6%.
Work on `CCN(c1nc(N)c(C(=O)NC(=N)N)nc1Cl)C(C)C` [5-(N-Ethyl-N-isopropyl)amiloride] yielded a remaining activity at 3.75 µM ([1]; Well no.=203, high concentration screen) of 97.3% and a remaining activity at 1.25 µM ([2]; Well no.=203, low concentration screen) of 99.7%.
`O=C(O)CCC(=O)Nc1ccc(S(=O)(=O)Nc2nccs2)cc1` [Succinylsulfathiazole] gave a remaining activity at 3.75 µM ([1]; Well no.=8034, high concentration screen) of 89.7% and a remaining activity at 1.25 µM ([2]; Well no.=8034, low concentration screen) of 89.3%.
`CCCCC[C@H](CC(=O)NO)C(=O)N[C@H](C(=O)N1CCC[C@H]1CO)C(C)C` [Actinonin] was tested, and the remaining activity at 3.75 µM ([1]; Well no.=21, high concentration screen) was 97.8% and the remaining activity at 1.25 µM ([2]; Well no.=21, low concentration screen) was 97.8%.
With `CCCCCCCC/C=C\CCCCCCCC(=O)NCc1ccc(O)c(OC)c1` [Olvanil] the remaining activity at 3.75 µM ([1]; Well no.=5771, high concentration screen) was 90% and the remaining activity at 1.25 µM ([2]; Well no.=5771, low concentration screen) was 94.2%.
Work on `CC12CC3CC(C)(C1)CC(N)(C3)C2` [Memantine hydrochloride] yielded a remaining activity at 3.75 µM ([1]; Well no.=1083, high concentration screen) of 99.3% and a remaining activity at 1.25 µM ([2]; Well no.=1083, low concentration screen) of 97.8%.
Work on `NCC(CC(=O)O)c1ccc(Cl)cc1` (racemic) yielded a remaining activity at 3.75 µM ([1]; Well no.=31, high concentration screen) of 97.2% and a remaining activity at 1.25 µM ([2]; Well no.=31, low concentration screen) of 96.2%.
In the case of `CN1CCC(=C2c3ccccc3C=Cc3ccccc32)CC1` [Cyproheptadine hydrochloride], the remaining activity at 3.75 µM ([1]; Well no.=38, high concentration screen) is reported as 91.5% and the remaining activity at 1.25 µM ([2]; Well no.=38, low concentration screen) is reported as 93.9%.
For `CN(C)CCN1C(=O)c2cccc3cc(N)cc(c23)C1=O` [Amonafide], the remaining activity at 3.75 µM ([1]; Well no.=5195, high concentration screen) was 96.7% and the remaining activity at 1.25 µM ([2]; Well no.=5195, low concentration screen) was 96.9%.
Molecule `Nc1ccn([C@H]2CC[C@@H](CO)O2)c(=O)n1` ["2',3' - Dideoxycytidine"] has a remaining activity at 3.75 µM ([1]; Well no.=1980, high concentration screen) of 102% and a remaining activity at 1.25 µM ([2]; Well no.=1980, low concentration screen) of 103%.
`CC(C)=CCC/C(C)=C/CC/C(C)=C/CSc1ccccc1C(=O)O` [Salirasib] showed a remaining activity at 3.75 µM ([1]; Well no.=6668, high concentration screen) of 105% and a remaining activity at 1.25 µM ([2]; Well no.=6668, low concentration screen) of 104%.
In the case of `O=C(O)c1ccccc1O` [Sodium salicylate], the remaining activity at 3.75 µM ([1]; Well no.=4971, high concentration screen) is reported as 97.2% and the remaining activity at 1.25 µM ([2]; Well no.=4971, low concentration screen) is reported as 98.6%.
`COc1nccnc1NS(=O)(=O)c1ccc(N)cc1` [Sulfalene] showed a remaining activity at 3.75 µM ([1]; Well no.=8228, high concentration screen) of 85.7% and a remaining activity at 1.25 µM ([2]; Well no.=8228, low concentration screen) of 103%.
